Reference: patent publication US12509444B2, “Compounds and methods for CD73 modulation and indications therefor” (Plexxikon Inc., priority 2019, dated 2025)

Assays:
[1] = target: T1, Human CD73 (amino acid residues 27-549) (Homo sapiens, UniProt P21589); assay: CD73 enzymatic assay (luciferase-based indirect assay, CellTiter-Glo); assay type: biochemical; settings: 0.4 nM CD73, 150 μM AMP, 1 hour at room temperature
T1 construct: Human CD73 (amino acid residues 27-549); His tag (N); made in house; host or cells: E. coli
T1 sequence (P21589 27-549): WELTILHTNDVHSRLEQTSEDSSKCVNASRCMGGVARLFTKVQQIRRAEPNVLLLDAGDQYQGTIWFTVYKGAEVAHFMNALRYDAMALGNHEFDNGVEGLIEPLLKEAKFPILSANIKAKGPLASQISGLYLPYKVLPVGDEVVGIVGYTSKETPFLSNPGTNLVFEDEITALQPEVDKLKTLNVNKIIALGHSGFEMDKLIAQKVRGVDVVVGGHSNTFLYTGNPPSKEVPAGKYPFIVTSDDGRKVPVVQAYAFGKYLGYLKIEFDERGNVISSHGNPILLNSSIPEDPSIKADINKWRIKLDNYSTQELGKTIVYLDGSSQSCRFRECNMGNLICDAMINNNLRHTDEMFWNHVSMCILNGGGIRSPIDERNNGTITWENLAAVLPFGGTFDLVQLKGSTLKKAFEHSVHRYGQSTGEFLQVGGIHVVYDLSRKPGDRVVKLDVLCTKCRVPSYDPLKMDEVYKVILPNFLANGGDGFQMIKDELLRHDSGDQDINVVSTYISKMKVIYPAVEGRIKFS
Procedure, shortened: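 His-tagged human CD73 (27-549) from E. coli, 0.4 nM, with 150 μM AMP in 50 mM HEPES pH 7.4, 0.01% Tween 20; 1 h at room temperature. AMP remaining read by CellTiter-Glo 2.0 luminescence with 1 μM final ATP after 30 min. IC50 from nonlinear regression of % inhibition.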

[2] = target: T2, human CD73 (Homo sapiens, UniProt P21589); assay: Inhibitor activity against CD73 in cell based assay (CD73 expressing CHO-K1 cells); settings: CHO-K1 cells expressing human CD73, 150 μM AMP, 4 hours of incubation; read-out: CHO-K1 CELL VARIANT: CD73 IC50
T2 construct: expressed in transfected cells
T2 sequence (P21589 27-549): T1 sequence (P21589 27-549)
Procedure, shortened: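 Stably transfected CHO-K1 cells expressing human CD73 (1×10^4/well) incubated 4 h with compound (8-point 1:3 titration, top 10 μM final, 0.2% DMSO) and 150 μM AMP. Residual AMP in supernatant measured by CellTiter-Glo luminescence with 1 μM ATP after 30 min at room temperature; IC50 by nonlinear regression of percent inhibition vs high/low controls.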

IC50 [1] [µM] | IC50 [2] [µM] | Compound
0.001 to 10 | 0.001 to 10 | C[C@H]1CCCC[C@H]1NC(=O)O[C@@H]1CCN(c2cn[nH]c(=O)c2Cl)C1 [P-0279, (R)-1-(5-chloro-6-oxo-1,6-dihydropyridazin-4-yl)pyrrolidin-3-yl ((1R,2S)-2-methylcyclohexyl)carbamate]
0.001 to 10 | 0.001 to 10 | O=C1CC(NC(=O)O[C@@H]2CCN(c3cn[nH]c(=O)c3Cl)C2)CCN1 (stereo partly drawn) [P-0280, (R)-1-(5-chloro-6-oxo-1,6-dihydropyridazin-4-yl)pyrrolidin-3-yl (2-oxopiperidin-4-yl)carbamate]
0.001 to 10 | 0.001 to 10 | CN1CCC(NC(=O)O[C@@H]2CCN(c3cn[nH]c(=O)c3Cl)C2)CC1=O (stereo partly drawn) [P-0281, (R)-1-(5-chloro-6-oxo-1,6-dihydropyridazin-4-yl)pyrrolidin-3-yl (1-methyl-2-oxopiperidin-4-yl)carbamate]
0.001 to 10 | 10 to 100 | O=C(O)Cn1ncc(N2CC[C@@H](OC(=O)NC3CCC(F)(F)CC3)C2)c(Cl)c1=O [P-0282, (R)-2-(5-chloro-4-(3-(((4,4-difluorocyclohexyl)carbamoyl)oxy)pyrrolidin-1-yl)-6-oxopyridazin-1(6H)-yl)acetic acid]
100 to 1000 | 10 to 100 | O=C(O)Cn1ncc(N2CC[C@@H](OC(=O)NC3CCC(F)(F)CC3)C2)cc1=O [P-0283, (R)-2-(4-(3-(((4,4-difluorocyclohexyl)carbamoyl)oxy)pyrrolidin-1-yl)-6-oxopyridazin-1(6H)-yl)acetic acid]
0.001 to 10 | 0.001 to 10 | O=C(NC1CCC(F)(F)CC1)O[C@@H]1CCN(c2cnn(CC(O)C(F)(F)F)c(=O)c2Cl)C1 (stereo partly drawn) [P-0284, (3R)-1-(5-chloro-6-oxo-1-(3,3,3-trifluoro-2-hydroxypropyl)-1,6-dihydropyridazin-4-yl)pyrrolidin-3-yl (4,4-difluorocyclohexyl)carbamate]
0.001 to 10 | 10 to 100 | NC(=O)Cn1ncc(N2CC[C@@H](OC(=O)NC3CCC(F)(F)CC3)C2)c(Cl)c1=O [P-0285, (R)-1-(1-(2-amino-2-oxoethyl)-5-chloro-6-oxo-1,6-dihydropyridazin-4-yl)pyrrolidin-3-yl (4,4-difluorocyclohexyl)carbamate]
0.001 to 10 | 10 to 100 | N#CCn1ncc(N2CC[C@@H](OC(=O)NC3CCC(F)(F)CC3)C2)c(Cl)c1=O [P-0286, (R)-1-(5-chloro-1-(cyanomethyl)-6-oxo-1,6-dihydropyridazin-4-yl)pyrrolidin-3-yl (4,4-difluorocyclohexyl)carbamate]
0.001 to 10 | 0.001 to 10 | O=C(NC1CCC(F)(F)CC1)O[C@@H]1CCN(c2cnn(CCO)c(=O)c2Cl)C1 [P-0287, (R)-1-(5-chloro-1-(2-hydroxyethyl)-6-oxo-1,6-dihydropyridazin-4-yl)pyrrolidin-3-yl (4,4-difluorocyclohexyl)carbamate]
0.001 to 10 | 0.001 to 10 | C[C@@H]1CCCC[C@@H]1NC(=O)O[C@@H]1CCN(c2cn[nH]c(=O)c2Cl)C1 [P-0288, (R)-1-(5-chloro-6-oxo-1,6-dihydropyridazin-4-yl)pyrrolidin-3-yl ((1S,2R)-2-methylcyclohexyl)carbamate]
0.001 to 10 | 0.001 to 10 | Cn1ncc(N2CC[C@@H](OC(=O)N[C@H]3CC[C@H](NS(=O)(=O)c4ccc(F)cc4F)CC3)C2)c(Cl)c1=O [P-0289, (R)-1-(5-chloro-1-methyl-6-oxo-1,6-dihydropyridazin-4-yl)pyrrolidin-3-yl ((1r,4R)-4-((2,4-difluorophenyl)sulfonamido)cyclohexyl)carbamate]

The remaining lines, values behind:

Compound | IC50 [1] [µM] | IC50 [2] [µM]
O=C(N[C@H]1CC[C@H](NC(=O)c2ccncc2)CC1)O[C@@H]1CCN(c2cn[nH]c(=O)c2Cl)C1 [P-0264, (R)-1-(5-chloro-6-oxo-1,6-dihydropyridazin-4-yl)pyrrolidin-3-yl ((1r,4R)-4-(isonicotinamido)cyclohexyl) carbamate] | 0.001 to 10 | 0.001 to 10
O=C(N[C@H]1CC[C@H](NC(=O)c2ccc(Cl)cc2)CC1)O[C@@H]1CCN(c2cn[nH]c(=O)c2Cl)C1 [P-0265, (R)-1-(5-chloro-6-oxo-1,6-dihydropyridazin-4-yl)pyrrolidin-3-yl ((1r,4R)-4-(4-chlorobenzamido)cyclohexyl) carbamate] | 0.001 to 10 | 0.001 to 10
O=C(N[C@H]1CC[C@H](NC(=O)c2ccccc2Cl)CC1)O[C@@H]1CCN(c2cn[nH]c(=O)c2Cl)C1 [P-0266, (R)-1-(5-chloro-6-oxo-1,6-dihydropyridazin-4-yl)pyrrolidin-3-yl ((1r,4R)-4-(2-chlorobenzamido)cyclohexyl) carbamate] | 0.001 to 10 | 0.001 to 10
O=C(N[C@H]1CC[C@H](NC(=O)c2c(F)cccc2F)CC1)O[C@@H]1CCN(c2cn[nH]c(=O)c2Cl)C1 [P-0267, (R)-1-(5-chloro-6-oxo-1,6-dihydropyridazin-4-yl)pyrrolidin-3-yl ((1r,4R)-4-(2,6-difluorobenzamido)cyclohexyl) carbamate] | 0.001 to 10 | 0.001 to 10
Cc1cccc(F)c1C(=O)N[C@H]1CC[C@H](NC(=O)O[C@@H]2CCN(c3cn[nH]c(=O)c3Cl)C2)CC1 [P-0268, (R)-1-(5-chloro-6-oxo-1,6-dihydropyridazin-4-yl)pyrrolidin-3-yl ((1r,4R)-4-(2-fluoro-6-methylbenzamido)cyclohexyl) carbamate] | 0.001 to 10 | 0.001 to 10
CCN(CC)CC(=O)N[C@H]1CC[C@H](NC(=O)O[C@@H]2CCN(c3cn[nH]c(=O)c3Cl)C2)CC1 [P-0269, (R)-1-(5-chloro-6-oxo-1,6-dihydropyridazin-4-yl)pyrrolidin-3-yl ((1r,4R)-4-(2-(diethylamino)acetamido)cyclohexyl)carbamate] | 0.001 to 10 | 0.001 to 10
O=C(CN1CCOCC1)N[C@H]1CC[C@H](NC(=O)O[C@@H]2CCN(c3cn[nH]c(=O)c3Cl)C2)CC1 [P-0270, (R)-1-(5-chloro-6-oxo-1,6-dihydropyridazin-4-yl)pyrrolidin-3-yl ((1r,4R)-4-(2-morpholinoacetamido)cyclohexyl)carbamate] | 0.001 to 10 | 0.001 to 10
O=C(NC1CC1)N[C@H]1CC[C@H](NC(=O)O[C@@H]2CCN(c3cn[nH]c(=O)c3Cl)C2)CC1 [P-0271, (R)-1-(5-chloro-6-oxo-1,6-dihydropyridazin-4-yl)pyrrolidin-3-yl ((1r,4R)-4-(3-cyclopropylureido)cyclohexyl) carbamate] | 0.001 to 10 | 0.001 to 10
O=C(Nc1ccc(Cl)cc1)N[C@H]1CC[C@H](NC(=O)O[C@@H]2CCN(c3cn[nH]c(=O)c3Cl)C2)CC1 [P-0272, (R)-1-(5-chloro-6-oxo-1,6-dihydropyridazin-4-yl)pyrrolidin-3-yl ((1r,4R)-4-(3-(4-chlorophenyl)ureido)cyclohexyl)carbamate] | 0.001 to 10 | 0.001 to 10
C[C@]1(O)CC[C@@H](NC(=O)O[C@@H]2CCN(c3cn[nH]c(=O)c3Cl)C2)CC1 [P-0273, (R)-1-(5-chloro-6-oxo-1,6-dihydropyridazin-4-yl)pyrrolidin-3-yl ((1s,4S)-4-hydroxy-4-methylcyclohexyl)carbamate] | 0.001 to 10 | 0.001 to 10
O=C(N[C@H]1CC[C@@H](O)CC1)O[C@@H]1CCN(c2cn[nH]c(=O)c2Cl)C1 [P-0274, (R)-1-(5-chloro-6-oxo-1,6-dihydropyridazin-4-yl)pyrrolidin-3-yl ((1s,4S)-4-hydroxycyclohexyl)carbamate] | 0.001 to 10 | 0.001 to 10
N#C[C@H]1CC[C@H](NC(=O)O[C@@H]2CCN(c3cn[nH]c(=O)c3Cl)C2)CC1 [P-0275, (R)-1-(5-chloro-6-oxo-1,6-dihydropyridazin-4-yl)pyrrolidin-3-yl ((1r,4R)-4-cyanocyclohexyl)carbamate] | 0.001 to 10 | 0.001 to 10
O=C(NC1CCC2(CC1)CC2)O[C@@H]1CCN(c2cn[nH]c(=O)c2Cl)C1 [P-0276, (R)-1-(5-chloro-6-oxo-1,6-dihydropyridazin-4-yl)pyrrolidin-3-yl spiro[2.5]octan-6-ylcarbamate] | 0.001 to 10 | 0.001 to 10
O=C(N[C@H]1CC[C@H](F)CC1)O[C@@H]1CCN(c2cn[nH]c(=O)c2Cl)C1 [P-0277, (R)-1-(5-chloro-6-oxo-1,6-dihydropyridazin-4-yl)pyrrolidin-3-yl ((1r,4R)-4-fluorocyclohexyl)carbamate] | 0.001 to 10 | 0.001 to 10
CC1(C)CCCC(NC(=O)O[C@@H]2CCN(c3cn[nH]c(=O)c3Cl)C2)C1 (stereo partly drawn) [P-0278, (R)-1-(5-chloro-6-oxo-1,6-dihydropyridazin-4-yl)pyrrolidin-3-yl (3,3-dimethylcyclohexyl)carbamate] | 0.001 to 10 | 0.001 to 10
